Laboratory results: patent US8668942B2, “Skin anti-oxidant enhancing formulation and associated method” (Fishrock Laboratories, Inc., priority 2012, dated 2014)

Key:
[1] = Total Oxygen radical Scavenging Capacity (TOSC) assay; type: biochemical; conditions: for total antioxidant activities, times higher than Trolox: in momordica cochinchinensis aril; for antioxidant capacity, higher than Trolox: in the gac oil
Protocol: (§1) Antioxidant capacities were assessed by the overall abilities of the compounds to suppress peroxyl radicals generated from the thermal homolysis of 2,2′-azobis-amidinopropane. Stock solutions of all samples were diluted 1/100 and 1/1000. […] However, at a lower concentration (dilution of 1/1000), the gac aril provided the highest peroxyl radical-scavenging capacity, 1.8 and 1.3 times as much as β-carotene and lycopene, respectively (FIG. 1b).
Using the TOSC method, it was apparent that total antioxidant activities of beta-carotene and lycopene in momordica cochinchinensis aril were high (2 times higher than Trolox), an analogue of Vitamin E commonly used a gold standard. The comparative TOSC values (cTOSC) of gac (Redmelon™) aril maintains 5.4 times greater than Trolox. […] The results are summarized below in the following table

[2] = Oxygen Radical Absorbance capacity (ORAC) assay; type: biochemical; conditions: 1/100 dilution of stock solutions; FIG. 1a
Protocol: Those figures depict graphical comparison of the antioxidant values of momordica cochichinchinensis (gac) aril, β-carotene, and lycopene using […] (ORAC) assay, ORAC values were obtained using a Trolox standard linear regression line.
as §1

| SMILES | total antioxidant activities, times higher than Trolox ([1]; relative to Trolox) [times] | antioxidant capacity, higher than Trolox ([1]; relative to Trolox) [%] | peroxyl radical scavenging capacity (rTOSC), times greater than Trolox ([1]; relative to Trolox) [times] | ability to scavenge peroxyl radicals, times as much as the Redmelon™ aril [2] [times] | ability to scavenge peroxyl radicals, times as much as β-carotene [2] [times] | cTOSC ([1]; comparative TOSC value) | rTOSC ([1]; peroxyl radical scavenging capacity) |
| --- | --- | --- | --- | --- | --- | --- | --- |
| CC1=C(/C=C/C(C)=C/C=C/C(C)=C/C=C/C=C(C)/C=C/C=C(C)/C=C/C2=C(C)CCCC2(C)C)C(C)(C)CCC1 [beta-carotene] | 2 | 50 | – | – | – | – | – |
| CC(C)=CCC/C(C)=C/C=C/C(C)=C/C=C/C(C)=C/C=C/C=C(C)/C=C/C=C(C)/C=C/C=C(\C)CCC=C(C)C [lycopene] | 2 | 50 | 24 | 1.4 | 2.4 | – | – |
| Cc1c(C)c2c(c(C)c1O)CCC(C)(C(=O)O)O2 (stereo not drawn) [Trolox] | – | – | – | – | – | 1.00 | 4.51 |
